Data: patent US20250319053A1, “INHIBITORS OF THE PEPTIDYL-PROLYL CIS/TRANS ISOMERASE (PIN1), COMBINATIONS AND USES THEREOF” (DANA-FARBER CANCER INSTITUTE, INC., priority 2021, published 2025)

Experiments:
[1] = tested on: PDAC tumors in GDA mice; test: KPC mouse-derived orthotopic allograft (GDA) mouse model; type: in vivo
Protocol: 2) the KPC Genetically engineered mouse-derived orthotopic allografts (GDA) mouse model (Hingorani et al., Cancer Cell 7, 469-483 (2005); Li et al., Comput Struct Biotechnol J 17, 498-506 (2019)). Mouse PDAC cells were established from KPC mouse pancreatic tumor tissues, followed by orthotopically injecting 1×10^6 mouse PDAC cells in 50 μL Matrigel (356231, Coaning) into the pancreas of female 8 week-old syngeneic immunocompetent C57BL/6 mice (Jackson Laboratories). 3) PDAC Patient-derived Tumor orthotopic xenografted (PDTX) mouse model (Gilles et al., Clin Cancer Res 24, 1734-1747 (2018); Rubio-Viqueira et al., Clin Cancer Res 12, 4652-4661 (2006)). PDAC PDX tumors were obtained from Dr. Muthuswamy and Dr. Hidalgo and divided into 4×2 mm pieces, followed by xenografting orthotopically into the pancreas of female 8-week-old immunodeficient NOD.Cg-Prkdc^scid Il12rg^tm1Wjl/SzJ (NOD scid gamma; NSG) mice (Jackson Laboratories). 4) PDAC Patient-derived Organoid and CAFs orthotopic xenograft (PDOX) mouse model (Dantes et al., JCI Insight 5, 137809 (2020); (Koikawa et al., Cancer letters 425, 65-77 (2018)). 5×10^4 patient derived PDAC organoids and 5×10^4 patient derived CAFs in 50 μL of Matrigel were injected orthotopically into the pancreas of female 8 week-old immunodeficient NSG mice (Jackson Laboratories).
Briefly, all mice were randomly selected to receive treatments groups. Tumor sizes were measured by weekly palpation with electronic caliper or ultrasound, and when tumors were reached >0.5 cm, the treatment was started. Briefly, animals were placed under general anesthesia with 2%-3% isoflurane once a week. Under general anesthesia, the abdominal wall became very flaccid, and the muscle tone of the mouse was very low. The mouse was scuffed with the left hand to allow for palpation and measurement with the right hand. This allowed to detect the firm pancreatic mass by palpation, and to determine its size by electronic caliper measurements. […] In the transgenic KPC mice, where spontaneous tumor development was expected, weekly palpation was started from age 8 weeks. When the tumor by palpation after age 12 weeks could not be detected, the mice were monitored by ultrasound. Once the maximum length >0.5 cm tumor was detected, the mice were randomized to treatment, and then followed tumor growth by electronic caliper measurement. To validate the external caliper measurements, the tumor size was measured prior to euthanization of the mice and then measured the actual tumor size upon necropsy to ascertain concordance. […] To evaluate the effects of CD8+ T cell or NK1.1′ cell depletion in GDA mice, mice were treated with anti-CD8 (200 μg, i.p., twice a week, BE0117, BioXcell) (Pantelidou et al., Cancer Discov. 9, 722-37 (2019)) or anti-NK1.1 (25 μg, i.p., twice a week, BE0036, BioXcell) (Waggoner et al., Nature 481, 394-398 (2011)), or vehicle (IgG isotype control), and/or Sulfopin (40 mg/kg, i.p., every day) (Pin1i−2) or vehicle (Sulfopin diluted solution; 5% NMP, 5% Solutol, 20% DMSO), and/or anti-PD1 (200 μg, i.p., every 3-4 days, BE0146, BioXcell) or vehicle (IgG isotype control). To test Sulfopin and/or PTX and/or anti-CTLA4 combination treatment in GDA mice, mice were treated with Sulfopin (40 mg/kg, i.p., every day) (Pin1i−2) or vehicle (Sulfopin diluted solution; 5% NMP, 5% Solutol, 20% DMSO), and/or PTX (10 mg/kg i.p., weekly) or vehicle (PTX diluted solution; 10% DMSO, 40% PEG300, 5% Tween 80, 45% Saline), and/or anti-CTLA-4 (250 μg, i.p., every 3-4 days, BE0032, BioXcell) or vehicle (IgG isotype control).

[2] = tested on: human PDAC organoids; test: Organoid apoptosis assay (caspase 3/7) with GEM or 5-FU; type: cell-based
Protocol: The organoids were isolated from Matrigel using collagenase, and seed Matrigel coated 96 well plate, and then treated with control (PBS) or GEM, or control (DMSO) or 5-FU, followed by assaying organoid apoptosis using fluorescent caspase 3/7 and live-cell time lapse imaging for 24 hr. At the start of coculture, a green-fluorescent caspase 3/7 probe reagent (R37111, Invitrogen) and Hoechst (135102, Invitrogen) was added to visualize cells undergoing apoptosis. Apoptotic organoids were monitored by time lapse imaging using BZ-X800 fluorescence microscope (KEYENCE) and quantified using BZ-X800 analyzer (ver. 1.1.1.8, KEYENCE). […] Synergy scores were calculated by Synergyfinder ver 2 (synergyfinder.fimm.fi/) (Ianevski et al., Nucleic Acids Res. 48 IW1), […]-[…] (2020)).

[3] = GDA mice, FIG. 9A, GEM 20 mg/kg, n=6, vehicle 34 days

SMILES	desmoplastic (fibrotic) and immunosuppressive TME ([1]; GDA mice)	CAF activation (IF for αSMA or PDGFRα) ([1]; GDA mice, 4 weeks)	collagen deposition (Sirius Red staining) ([1]; GDA mice, 4 weeks)	Median survival [1, 3]	Median survival ([1]; GDA mice, FIG. 9I, treated up to 150 days, GEM 10 mg/kg weekly, αPD1, n=8, vehicle 36.5 days)	tumor growth ([1]; overt tumor-bearing GDA mice)	apoptosis in WT organoids ([2]; Pin1i−2 at 5 μM 3 days, then GEM at 25 nM for 24 hrs)	GEM-mediated organoid apoptosis ([2]; pre-treated with Pin1i−1 at 10 μM or Pin1i−2 at 5 μM for 72 hrs, then GEM at 25 nM for 24 hrs)	organoid apoptosis, agent alone ([2]; GEM at 25 nM for 24 hrs)
CC(C)(C)CN(C(=O)CCl)C1CCS(=O)(=O)C1 (stereo not shown) [Pin1i−2, sulfopin]	potently reduce the fibrotic TME	significantly reduced	significantly reduced	56 days	54 days	significantly reduced tumor growth	induced apoptosis in WT organoids	greatly potentiated GEM-mediated organoid apoptosis	–
Nc1ccn([C@@H]2O[C@H](CO)[C@@H](O)C2(F)F)c(=O)n1 [GEM, gemcitabine, reference compound]	–	–	–	42 days	–	–	–	–	neither Pin1i nor GEM alone had obvious effect
